Here are results for 5 compounds from ChEMBL document CHEMBL1909046, “DrugMatrix in vitro pharmacology data”.

One may read the IC50 as the concentration that inhibits the measured activity by half. As usually defined, the Ki is the equilibrium dissociation constant of an inhibitor or competing ligand from its target.

The first data set deals with Beta-2 adrenergic receptor (Homo sapiens, UniProt P07550). Kind of data set: DRUGMATRIX: Adrenergic beta2 radioligand binding (ligand: [3H] CGP-12177). It is filed as cell membranes, Membrane. Particulars: cho; Not Active = under 50% inhibition at 10 µM.
Take `O=NN(CCCl)C(=O)NC1CCCCC1` [LOMUSTINE]: the IC50 entry is recorded as “Not Active”.
With SODIUM NITROPRUSSIDE, the IC50 entry is recorded as “Not Active” and the Ki result is on record as “Not Active”.
`Cc1noc(NS(=O)(=O)c2ccc(N)cc2)c1C` [SULFISOXAZOLE]: the IC50 result was “Not Active”.
In the case of `Cc1cccc(N(C)C(=S)Oc2ccc3ccccc3c2)c1` [TOLNAFTATE], the IC50 result is given as “Not Active”.
In the case of `CC[C@@H](CO)NC(=O)[C@@H]1C=C2c3cccc4[nH]cc(c34)C[C@H]2N(C)C1` [METHYLERGONOVINE], the IC50 entry is “Not Active”.

Test system in another data set: not listed separately
The data set can be described thus: DRUGMATRIX: Glutamate, NMDA, Phencyclidine radioligand binding (ligand: [3H] TCP). To be noted: Not Active = under 50% inhibition at 10 µM. It is filed as cell membranes, Rattus norvegicus, Wistar, Cerebral cortex, Membrane.
Take `O=NN(CCCl)C(=O)NC1CCCCC1` [LOMUSTINE]: the IC50 result was “Not Active” and the Ki result is “Not Active”.
Consider SODIUM NITROPRUSSIDE, for which the IC50 entry is recorded as “Not Active” and the Ki result is given as “Not Active”.
`Cc1noc(NS(=O)(=O)c2ccc(N)cc2)c1C` [SULFISOXAZOLE]: the IC50 entry was “Not Active” and the Ki result is reported as “Not Active”.
On to `Cc1cccc(N(C)C(=S)Oc2ccc3ccccc3c2)c1` [TOLNAFTATE], for which the IC50 entry is “Not Active” and the Ki result is given as “Not Active”.
In the case of `CC[C@@H](CO)NC(=O)[C@@H]1C=C2c3cccc4[nH]cc(c34)C[C@H]2N(C)C1` [METHYLERGONOVINE], the IC50 result is recorded as “Not Active” and the Ki entry is given as “Not Active”.

In the next data set the target is T1, Leukotriene C4 synthase (Cavia porcellus, UniProt A6XA80).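 Further: enzyme inhibition assay of leukotriene C4 synthase, using LTA4 as the substrate; in other assays of this panel Not Active means under 50% inhibition at 10 µM.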
T1 sequence (A6XA80 whole entry): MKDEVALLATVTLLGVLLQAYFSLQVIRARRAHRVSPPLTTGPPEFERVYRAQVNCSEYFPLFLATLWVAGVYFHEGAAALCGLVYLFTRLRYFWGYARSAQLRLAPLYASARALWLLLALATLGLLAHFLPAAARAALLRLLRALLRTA
The format is tissue-based, Lung.
Conditions: not given
`O=NN(CCCl)C(=O)NC1CCCCC1` [LOMUSTINE]: the IC50 entry is given as “Not Active”.
With SODIUM NITROPRUSSIDE, the IC50 result is “Not Active” and the Ki result is recorded as “Not Active”.
`Cc1noc(NS(=O)(=O)c2ccc(N)cc2)c1C` [SULFISOXAZOLE]: the IC50 result is “Not Active”.
As to `Cc1cccc(N(C)C(=S)Oc2ccc3ccccc3c2)c1` [TOLNAFTATE], the IC50 entry was “Not Active”.
In the case of `CC[C@@H](CO)NC(=O)[C@@H]1C=C2c3cccc4[nH]cc(c34)C[C@H]2N(C)C1` [METHYLERGONOVINE], the IC50 result is recorded as “Not Active”.

In another data set the target is T2, Cytochrome P450 1A2 (Homo sapiens, UniProt P05177). Further: in other assays of this panel Not Active means under 50% inhibition at 10 µM.
T2 sequence (P05177 whole entry): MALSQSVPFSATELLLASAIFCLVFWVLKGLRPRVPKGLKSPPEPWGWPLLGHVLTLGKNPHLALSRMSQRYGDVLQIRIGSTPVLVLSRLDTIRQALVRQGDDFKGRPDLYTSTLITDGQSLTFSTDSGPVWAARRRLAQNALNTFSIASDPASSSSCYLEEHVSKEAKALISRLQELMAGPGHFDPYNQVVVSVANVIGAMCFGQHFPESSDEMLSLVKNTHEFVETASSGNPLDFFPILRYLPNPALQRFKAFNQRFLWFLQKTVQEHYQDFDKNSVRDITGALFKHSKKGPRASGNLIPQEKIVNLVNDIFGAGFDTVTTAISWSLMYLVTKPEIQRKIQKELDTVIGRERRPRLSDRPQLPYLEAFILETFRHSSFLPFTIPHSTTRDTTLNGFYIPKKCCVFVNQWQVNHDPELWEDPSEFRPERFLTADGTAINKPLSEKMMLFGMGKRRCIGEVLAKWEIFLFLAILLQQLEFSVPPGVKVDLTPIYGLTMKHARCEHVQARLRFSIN
To be noted: bti-tn-5b1-4.
On to `O=NN(CCCl)C(=O)NC1CCCCC1` [LOMUSTINE], for which the IC50 result is on record as “Not Active” and the Ki result is on record as “Not Active”.
As for SODIUM NITROPRUSSIDE, the IC50 result was “Not Active” and the Ki result is on record as “Not Active”.
In the case of `Cc1noc(NS(=O)(=O)c2ccc(N)cc2)c1C` [SULFISOXAZOLE], the IC50 entry was “Not Active” and the Ki entry is “Not Active”.
On to `Cc1cccc(N(C)C(=S)Oc2ccc3ccccc3c2)c1` [TOLNAFTATE], for which the IC50 result is recorded as “Not Active” and the Ki result is “Not Active”.
On to `CC[C@@H](CO)NC(=O)[C@@H]1C=C2c3cccc4[nH]cc(c34)C[C@H]2N(C)C1` [METHYLERGONOVINE], for which the IC50 entry is recorded as “Not Active” and the Ki result is “Not Active”.

The target in the next data set is D(3) dopamine receptor (Homo sapiens, UniProt P35462). Kind of data set: DRUGMATRIX: Dopamine D3 radioligand binding (ligand: [3H] Spiperone). It is filed as cell membranes, CHO, Membrane. Particulars: cho.
D(3) dopamine receptor, sequence (P35462 whole entry): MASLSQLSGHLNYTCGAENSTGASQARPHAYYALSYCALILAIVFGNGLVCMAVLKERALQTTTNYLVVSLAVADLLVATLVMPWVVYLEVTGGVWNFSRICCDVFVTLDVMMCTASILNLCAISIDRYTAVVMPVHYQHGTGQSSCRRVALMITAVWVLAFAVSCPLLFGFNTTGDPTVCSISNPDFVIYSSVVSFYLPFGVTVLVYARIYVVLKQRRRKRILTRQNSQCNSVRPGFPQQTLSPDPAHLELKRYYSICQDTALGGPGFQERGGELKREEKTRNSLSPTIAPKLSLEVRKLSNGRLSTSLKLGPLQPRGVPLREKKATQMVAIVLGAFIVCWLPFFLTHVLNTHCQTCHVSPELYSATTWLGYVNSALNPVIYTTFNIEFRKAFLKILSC
As to `O=NN(CCCl)C(=O)NC1CCCCC1` [LOMUSTINE], the IC50 entry is reported as “Not Active”.
Take SODIUM NITROPRUSSIDE: the IC50 entry is “Not Active” and the Ki result was “Not Active”.
Regarding `Cc1noc(NS(=O)(=O)c2ccc(N)cc2)c1C` [SULFISOXAZOLE], the IC50 result was “Not Active”.
The same measure, in the same setting: the entry for `Cc1cccc(N(C)C(=S)Oc2ccc3ccccc3c2)c1` [TOLNAFTATE] is “Not Active”.

The same data set, now with this note: read-out: IC50.
For `CC[C@@H](CO)NC(=O)[C@@H]1C=C2c3cccc4[nH]cc(c34)C[C@H]2N(C)C1` [METHYLERGONOVINE], the IC50 came out at 0.167 µM.

The same data set, now with this note: read-out: Ki.
For `CC[C@@H](CO)NC(=O)[C@@H]1C=C2c3cccc4[nH]cc(c34)C[C@H]2N(C)C1` [METHYLERGONOVINE], the Ki came out at 0.057 µM.

Test system in a further data set: not listed separately
The data set can be described thus: DRUGMATRIX: Leukotriene, BLT (LTB4) radioligand binding (ligand: [3H]LTB4). To be noted: u-937; Not Active = under 50% inhibition at 10 µM. The format is cell membranes, Membrane.
Turning to `O=NN(CCCl)C(=O)NC1CCCCC1` [LOMUSTINE], the IC50 entry is on record as “Not Active” and the Ki entry is given as “Not Active”.
As to SODIUM NITROPRUSSIDE, the 50% inhibitory concentration (IC50) entry is listed as “Not Active” and the Ki entry is “Not Active”.
Turning to `Cc1noc(NS(=O)(=O)c2ccc(N)cc2)c1C` [SULFISOXAZOLE], the IC50 result is “Not Active” and the Ki result is given as “Not Active”.
Turning to `Cc1cccc(N(C)C(=S)Oc2ccc3ccccc3c2)c1` [TOLNAFTATE], the IC50 entry is given as “Not Active” and the Ki entry is “Not Active”.
With `CC[C@@H](CO)NC(=O)[C@@H]1C=C2c3cccc4[nH]cc(c34)C[C@H]2N(C)C1` [METHYLERGONOVINE], the IC50 entry is “Not Active” and the Ki entry is recorded as “Not Active”.

The target in a further data set is Delta-type opioid receptor (Homo sapiens, UniProt P41143). The format is cell membranes, HEK293, Membrane. Particulars: hek293. Further: in other assays of this panel Not Active means under 50% inhibition at 10 µM.
Delta-type opioid receptor, sequence (P41143 whole entry): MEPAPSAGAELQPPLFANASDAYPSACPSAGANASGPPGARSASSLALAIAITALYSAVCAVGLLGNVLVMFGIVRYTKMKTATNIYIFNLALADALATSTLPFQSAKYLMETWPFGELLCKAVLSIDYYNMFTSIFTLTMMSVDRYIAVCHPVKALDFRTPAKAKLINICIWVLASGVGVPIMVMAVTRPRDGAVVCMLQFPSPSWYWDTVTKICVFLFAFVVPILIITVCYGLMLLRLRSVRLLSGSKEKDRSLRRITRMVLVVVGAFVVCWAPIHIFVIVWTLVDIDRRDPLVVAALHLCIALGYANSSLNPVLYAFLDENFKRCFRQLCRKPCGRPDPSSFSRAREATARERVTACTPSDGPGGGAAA
For `O=NN(CCCl)C(=O)NC1CCCCC1` [LOMUSTINE], the IC50 result was “Not Active”.
For the compound SODIUM NITROPRUSSIDE, the IC50 entry is “Not Active” and the Ki entry was “Not Active”.
As for `Cc1noc(NS(=O)(=O)c2ccc(N)cc2)c1C` [SULFISOXAZOLE], the IC50 entry was “Not Active”.
As to `Cc1cccc(N(C)C(=S)Oc2ccc3ccccc3c2)c1` [TOLNAFTATE], the IC50 result is recorded as “Not Active”.
For `CC[C@@H](CO)NC(=O)[C@@H]1C=C2c3cccc4[nH]cc(c34)C[C@H]2N(C)C1` [METHYLERGONOVINE], the IC50 result is listed as “Not Active”.
